Source: patent US11141403B2, “Benzimidazoles and indoles as taro inhibitors” (MERCK SHARP & DOHME CORP., priority 2015, dated 2021)

Test system: MRSA COL (MB5393)
Experiment: TarO Inhibitor/β-Lactam Synergy Assay
Assay type: cell-based, Staphylococcus aureus
Settings: 20 hours; for IC95: Staphylococcus aureus, TarO inhibitor alone, OD600, 95% growth inhibition, read-out: MITC95 TarO inhibitor alone, Bacteria: SA_MB5393; for MITC95 TarO inhibitor + 4 μg/mL IPM; Bacteria: SA_MB5393: in combination with 4 μg/mL imipenem; for MITC95 TarO inhibitor + 4 μg/mL IPM; Bacteria: SA_MB5393 / MITC95 TarO inhibitor + 8 μg/mL DCX; Bacteria: SA_MB5393: OD600; for MITC95 TarO inhibitor + 8 μg/mL DCX; Bacteria: SA_MB5393: in combination with 8 μg/mL dicloxacillin
Description: The TarO inhibitor/β-lactam synergy assay was performed to measure the re-sensitization of methicillin-resistant Staphylococci bacteria (MB5393: MRSA COL) to β-lactam antibiotics by TarO inhibitors. MRSA COL is a hospital-acquired penicillinase-negative clinically isolated strain commonly used in Staphylococcus aureus studies and is fully resistant to the antimicrobial bioactivity of β-lactam antibiotics, including but not limited to imipenem and dicloxacillin. […] MRSA COL is fully refractory to β-lactam antibiotic effect at the current clinical breakpoint concentrations and as such MRSA COL is fully viable at these concentrations.
The β-lactam antibiotic concentration was fixed at the clinical breakpoint (imipenem 4 μg/ml or dicloxacillin 8 μg/ml) and the TarO inhibitors were titrated by 2 fold starting from the highest concentration of 200 μM with final DMSO concentration of 2% in the assay. 5×10^5 colony forming unit of MRSA COL in cation-adjusted Mueller Hinton broth (CAMHB) was then mixed and the assay plate was incubated for 20 hours at 37° C. without shaking. After 20 hours, the optical density at 600 nm (OD600) was read for all wells to determine relative growth of MRSA COL.

| SMILES | IC95 [µM] | MITC95 TarO inhibitor + 4 μg/mL IPM; Bacteria: SA_MB5393 [µM] | MITC95 TarO inhibitor + 8 μg/mL DCX; Bacteria: SA_MB5393 [µM] |
| --- | --- | --- | --- |
| CCN(C(=O)CCn1c2ccc(C(F)(F)F)cc2nc1[C@H]1CC[C@H](CC)CC1)C1CCCCC1 [Example 7, N-cyclohexyl-N-ethyl-3-[2-(trans-4-ethylcyclohexyl)-5-(trifluoromethyl)-1H-benzimidazol-1-yl]propanamide] | > 200 | 0.20 | 0.20 |
| CCOC(=O)N1CCCC(c2nc3ccc(F)cc3n2CCC(=O)N(CC)C2CCCCC2)C1 (centres unmarked) [Example 23, Ethyl 3-(1-{3-[cyclohexyl(ethyl)amino]-3-oxopropyl}-6-fluoro-1H-benzimidazol-2-yl)piperidine-1-carboxylate] | > 200 | 9.38 | 37.50 |
| CCN(C(=O)CCn1c2cc(CN3CC(F)(F)C3)ccc2nc1[C@H]1CC[C@H](CC)CC1)C1CCCCC1 [Example 31, N-cyclohexyl-3-{6-[(3,3-difluoroazetidin-1-yl)methyl]-2-(trans-4-ethylcyclohexyl)-1H-benzimidazol-1-yl}-N-ethylpropanamide] | > 200 | 6.25 | 50 |
| CCN(C(=O)CCn1c2cnccc2nc1[C@H]1CC[C@H](CC)CC1)C1CCCCC1 [Example 4, N-cyclohexyl-N-ethyl-3-[2-(trans-4-ethylcyclohexyl)-3H-imidazo[4,5-c]pyridin-3-yl]propanamide] | > 200 | 4.17 | 41.67 |
| CCN(C(=O)CCn1c2ccc(F)cc2nc1[C@H]1CC[C@H](CC)CC1)C1CCCCC1 [Example 10, N-cyclohexyl-N-ethyl-3-[2-(trans-4-ethylcyclohexyl)-5-fluoro-1H-benzimidazol-1-yl]propanamide] | > 200 | 0.004 | 0.03 |
| CCN(C(=O)CCn1c2cc(F)ccc2nc1[C@H]1CC[C@H](CC)CC1)C1CCCCC1 [Example 6, N-cyclohexyl-N-ethyl-3-(2-(trans-4-ethvlcyclohexyl)-6-fluoro-1H-benzo[d]imidazol-1-yl)propanamide] | > 200 | 0.13 | 0.59 |
| CCN(C(=O)CCn1c(-c2ccc(C(=O)OC)cc2)nc2ccccc21)C1CCCCC1 [Example 36, methyl 4-(1-{3-[cyclohexyl(ethyl)amino]-3-oxopropyl}-1H-benzimidazol-2-yl)benzoate] | > 200 | 0.68 | 3.91 |
| CCN(C(=O)CCn1c2ccc(C#N)cc2nc1[C@H]1CC[C@H](CC)CC1)C1CCCCC1 [Example 22, 3-[5-cyano-2-(trans-4-ethylcyclohexyl)-1H-benzimidazol-1-yl]-N-cyclohexyl-N-ethylpropanamide] | > 200 | 0.36 | 0.88 |
| CC(C)(C)OC(=O)N1CCC(c2nc3ccccc3n2CCC(=O)NC2C[C@H]3CC[C@]2(C)C3(C)C)C1 (stereo partly drawn) [Example 41, tert-butyl 3-[1-(3-oxo-3-{[(1R,4R)-1,7,7-trimethylbicyclo[2.2.1]hept-2-yl]amino}propyl)-1H-benzimidazol-2-yl]pyrrolidine-1-carboxylate] | > 200 | 5.47 | 37.50 |
| CCN(C(=O)CCn1c(N2CCC(C(F)F)CC2)nc2ccccc21)C1CCCCC1 [Example 56, N-cyclohexyl-3-{2-[4-(difluoromethyl)piperidin-1-yl]-1H-benzimidazol-1-yl}-N-ethylpropanamide] | > 200 | 1.17 | 4.69 |
| CCN(C(=O)CCn1c2cccc(F)c2nc1[C@H]1CC[C@H](CC)CC1)C1CCCCC1 [Example 9, N-cyclohexyl-N-ethyl-3-[2-(trans-4-ethylcyclohexyl)-4-fluoro-1H-benzimidazol-1-yl]propanamide] | > 200 | 0.13 | 0.79 |
| CCN(C(=O)CCn1c2ccc(C3CC3)cc2nc1[C@H]1CC[C@H](CC)CC1)C1CCCCC1 [Example 26, N-cyclohexyl-3-[5-cyclopropyl-2-(trans-4-ethylcyclohexyl)-1H-benzimidazol-1-yl]-N-ethylpropanamide] | > 200 | 1.30 | 4.17 |
| CCCCOC(=O)N1CCCC(c2nc3ccccc3n2CCC(=O)N(CC)C2CCCCC2)C1 (centres unmarked) [Example 45, butyl 3-(1-{3-[cyclohexyl(ethyl)amino]-3-oxopropyl}-1H-benzimidazol-2-yl)piperidine-1-carboxylate] | 100 | 0.20 | 0.78 |
| CCN(C(=O)CCn1c(N2CCC[C@H](NC(=O)OC(C)(C)C)C2)nc2ccccc21)C1CCCCC1 [Example 59, tert-butyl [(3S)-1-(1-{3-[cyclohexyl(ethyl)amino]-3-oxopropyl}-1H-benzimidazol-2-yl)piperidin-3-yl]carbamate] | > 200 | 50 | 150 |
| CCCOC(=O)N1CC(c2nc3ccccc3n2CCC(=O)N(CC)C2CCCCC2)CCC1C (centres unmarked) [Example 49, propyl 5-(1-{3-[cyclohexyl(ethyl)amino]-3-oxopropyl}-1H-benzimidazol-2-yl)-2-methylpiperidine-1-carboxylate] | 100 | 0.78 | 6.25 |
| CCN(C(=O)CCn1c(C2CCCN(c3nccc(C)n3)C2)nc2ccccc21)C1CCCCC1 (centres unmarked) [Example 52, N-cyclohexyl-N-ethyl-3-{2-[1-(4-methylpyrimidin-2-yl)piperidin-3-yl]-1H-benzimidazol-1-yl}propanamide] | 100 | 1.56 | 6.25 |
| CCN(C(=O)CCn1c2cccnc2nc1[C@H]1CC[C@H](CC)CC1)C1CCCCC1 [Example 2, N-cyclohexyl-N-ethyl-3-[2-(trans-4-ethylcyclohexyl)-1H-imidazo[4,5-b]pyridin-1-yl]propanamide] | > 200 | 1.88 | 18.75 |
| CCN(C(=O)CCn1c2ncccc2nc1[C@H]1CC[C@H](CC)CC1)C1CCCCC1 [Example 19, N-cyclohexyl-N-ethyl-3-[2-(trans-4-ethylcyclohexyl)-3H-imidazo[4,5-b]pyridin-3-yl]propanamide] | > 200 | 1.95 | 28.13 |
| CCN(C(=O)CCn1c(C2CCCN(C(=O)OC(C)(C)C)C2)nc2cc(F)ccc21)C1CCCCC1 (centres unmarked) [Example 12, tert-butyl 3-(1-{3-[cyclohexyl(ethyl)amino]-3-oxopropyl}-5-fluoro-1H-benzimidazol-2-yl)piperidine-1-carboxylate] | > 200 | 0.50 | 1.09 |
| CCc1nsc(N2CCCC(c3nc4ccccc4n3CCC(=O)N(CC)C3CCCCC3)C2)n1 (centres unmarked) [Example 46, N-cyclohexyl-N-ethyl-3-{2-[1-(3-ethyl-1,2,4-thiadiazol-5-yl)piperidin-3-yl]-1H-benzimidazol-1-yl}propanamide] | 100 | 1.56 | 6.25 |
| CCOc1ccc(-c2nc3ccccc3n2CCC(=O)N(CC)C2CCCCC2)cn1 [Example 38, N-cyclohexyl-3-[2-(6-ethoxypyridin-3-yl)-1H-benzimidazol-1-yl]-N-ethylpropanamide] | > 200 | 2.08 | 12.50 |
| CCN(C(=O)CCn1c(C2CCCN(C(=O)OC(C)C)C2)nc2ccccc21)C1CCCCC1 (centres unmarked) [Example 53, 1-methylethyl 3-(1-{3-[cyclohexyl(ethyl)amino]-3-oxopropyl}-1H-benzimidazol-2-yl)piperidine-1-carboxylate] | 100 | 1.56 | 6.25 |
| CC1CCN(C(=O)CCn2c(C3CCCCC3)nc3ccccc32)CC1 [Example 63, 3-(2-cyclohexyl-1H-benzo[d]imidazol-1-yl)-1-(4-methylpiperidin-1-yl)propan-1-one] | > 200 | 18.75 |  |
| CCN(C(=O)CCn1c2ccc(Br)cc2nc1[C@H]1CC[C@H](CC)CC1)C1CCCCC1 [Example 5, 3-[5-bromo-2-(trans-4-ethylcyclohexyl)-1H-benzimidazol-1-yl]-N-cvclohexyl-N-ethylpropanamide] | > 200 | 0.01 | 0.02 |
